Source: patent US8940717B2, “Plant disease controlling composition and method for controlling plant disease” (Sumitomo Chemical Company, Limited, priority 2010, dated 2015)
Read-outs that look alike come from different tables or passages of the source.

Tested on: gray mold fungus (Botrytis cinerea)
Test: Cucumber leaf disk preventive test against gray mold
Type: in vivo
Settings: for pest or weed control at 0.5 ppm / pest or weed control at 5 ppm: Botrytis cinerea, foliar, 96 h, read-out: preventive value (%)
Description: To a SUS beaker are added 30 parts of the present compound (racemate), 5 parts of Soprophor FLK (polyoxyethylene tristyrylphenyl ether phosphate, produced by Rhodia Nicca Ltd.), 65 parts of ion-exchange water and 150 parts of glass beads (1.0 mm diameter). The mixture is subjected to grinding at a velocity of 1000 rpm with cooling to 10° C., and thereafter the glass beads are separated, so as to obtain a flowable formulation comprising the present compound (racemate).
True leaf of cucumber is punched out with cork borer to 13 mm in diameter to prepare a leaf disk. In 24 well microwell plate that is dispensed with 1 ml 0.8% water agar, the leaf disk is placed such that the upper side of the leaf is in an upward direction. Thereto is added 20 micro liter a testing solution prepared by mixing the flowable formulation of the present compound (racemate) prepared by the above procedure and a commercial wettable powder of fludioxonil or chlorothalonil to a predetermined concentration to treat the leaf disk.
After confirming that the testing medical solution is dried, conidium of gray mold fungus (Botrytis cinerea) is suspended into potato dextrose broth (DIFCO) in a density of about 10^5 conidium/mL and is then subjected to a spray inoculation. After leaving to stand the leaf disk in a growth chamber set up at 15° C. for four days, an onset area on the leaf is measured and then calculated an onset area rate (hereinafter, referred to as an onset area rate of treated group).
The same operation is carried out with 20 micro liter water instead of 20 micro liter a testing medicine solution to calculate an onset area rate (hereinafter, referred to an onset area rate of non-treated group).
A preventive value is calculated from the above onset area rate of treated group and the onset area rate of non-treated group by the following equation: Preventive value (%)=100×(A−B)/A
A: an onset area rate of treated group
B: an onset area rate of non-treated group
The same operations as described in Test Example 1 are carried out with cyflufenamid, diethofencarb, dithianon, fluazinam, flusulfamide, fosetyl-Al, metrafenon, penflufen, phthalide, sedaxane, spiroxamine or tebufloquin, instead of fludioxonil or chlorothalonil, so as to calculate respective preventive values.
Also for comparison, the same operations as described in Test Example 1 are carried out with the exception that the testing medicine solution is substituted with a predetermined concentration of each dimethyl sulfoxide solution of the present compound (racemate), cyflufenamid, diethofencarb, dithianon, fluazinam, flusulfamide, fosetyl-Al, metrafenon, penflufen, phthalide, sedaxane, spiroxamine or tebufloquin, so as to calculate respective preventive values.
For comparison, the same operations as described in Test Example 1 are carried out with the exception that the testing medicine solution is substituted with a predetermined concentration of each dimethyl sulfoxide solution of fludioxonil or chlorothalonil, so as to calculate a preventive value.

[1] = partner fungicide alone 0.5 ppm, dimethyl sulfoxide solution, cucumber leaf disk, 15° C., four days
[2] = partner fungicide alone 5.0 ppm, dimethyl sulfoxide solution, cucumber leaf disk, 15° C., four days

| Structure (SMILES) | pest or weed control at 0.5 ppm [1] | pest or weed control at 5 ppm [2] | preventive value (%) [1] | preventive value (%) [2] | also measured |
| --- | --- | --- | --- | --- | --- |
| O=[N+]([O-])c1cc(C(F)(F)F)c(Cl)c([N+](=O)[O-])c1Nc1ncc(C(F)(F)F)cc1Cl [fluazinam] | 47% | 52% | – | – | – |
| CCOc1ccc(NC(=O)OC(C)C)cc1OCC [diethofencarb] | 0% | 0% | – | – | – |
| N#Cc1c(Cl)c(Cl)c(Cl)c(C#N)c1Cl [chlorothalonil] | 15% | 45% | – | – | – |
| N#Cc1c[nH]cc1-c1cccc2c1OC(F)(F)O2 [fludioxonil] | – | – | – | – | pest or weed control at 0.5 ppm: 45%; pest or weed control at 5 ppm: 57% |
| CCCN(CC)CC1COC2(CCC(C(C)(C)C)CC2)O1 (stereo not shown) [spiroxamine] | 10% | 15% | – | – | – |
| O=C1OCc2ccccc21 [phthalide] | 10% | 15% | – | – | – |
| CCO[PH](=O)O [fosetyl-Al] | – | – | 15% | 20% | – |
| O=[N+]([O-])c1ccc(NS(=O)(=O)c2ccc(Cl)c(C(F)(F)F)c2)c(Cl)c1 [flusulfamide] | – | – | – | – | pest or weed control at 0.5 ppm: 15%; pest or weed control at 5 ppm: 20% |
| CC(=O)Oc1c(C)c(C)nc2c(F)cc(C(C)(C)C)cc12 [tebufloquin] | – | – | 10% | 15% | – |
| N#Cc1sc2c(=O)c3ccccc3c(=O)c=2sc1C#N [dithianon] | 15% | 20% | – | – | – |
| O=C(Cc1ccccc1)N/C(=N\OCC1CC1)c1c(C(F)(F)F)ccc(F)c1F [cyflufenamid] | 10% | 15% | – | – | – |
| Cc1nn(C)c(F)c1C(=O)Nc1ccccc1C(C)CC(C)C (stereo not shown) [penflufen] | – | – | 10% | 15% | – |
| Cn1cc(C(=O)Nc2ccccc2C2CC2C2CC2)c(C(F)F)n1 (stereo not shown) [sedaxane] | – | – | 20% | 40% | – |
| COc1cc(C)c(C(=O)c2c(OC)ccc(Br)c2C)c(OC)c1OC [metrafenon] | – | – | 10% | 15% | – |
